Measured values from patent publication US20230085307A1, “PYRIDAZINONE COMPOUND AND HERBICIDE” (NISSAN CHEMICAL CORPORATION, priority 2019, published 2023).

How the values were obtained:
redroot pigweed [1] = test: Test Example 4: herbicidal effect by soil treatment (Table 19, symbol N); assay type: in vivo, redroot pigweed (Amaranthus retroflexus); settings: amount of applied herbicide 320 g/ha
Procedure, shortened: (§1)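 In this soil treatment, the formulated compound reached the seeds only through the soil: seeds were buried about 1.5 cm deep in sterilized diluvial soil, then the diluted emulsion was sprayed over the surface. After three weeks at 25° C. to 30° C. in a greenhouse, effects were graded on criteria from an earlier test.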

persian speedwell [2] = test: Test Example 5: herbicidal effect by foliage application, plastic box (Table 20, symbol R); assay type: in vivo, Persian speedwell (Veronica persica); settings: foliage application, 320 g/ha, three weeks after application
Procedure, shortened: (§2)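 Plants were sown into sterilized diluvial soil under about 1.5 cm cover and kept in a greenhouse at 25° C. to 30° C. Fourteen days on, foliage received an even spray of the diluted emulsion. Herbicidal or crop effect was judged three weeks afterwards.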

redroot pigweed [3] = test: Test Example 5: herbicidal effect by foliage application, plastic box (Table 20, symbol N); assay type: in vivo, redroot pigweed (Amaranthus retroflexus); settings: foliage application, 320 g/ha, three weeks after application
Procedure, shortened: as §2

blackgrass [4] = test: Test Example 5: herbicidal effect by foliage application, plastic box (Table 20, symbol J); assay type: in vivo, blackgrass (Alopecurus myosuroides); settings: foliage application, 320 g/ha, three weeks after application
Procedure, shortened: as §2

late watergrass = test: Test Example 1: herbicidal activity, application before weed generation under submerged conditions (Table 16, symbol A); assay type: in vivo, late watergrass (Echinochloa oryzicola); settings: 320 g/ha applied herbicide
Procedure, shortened: (§3)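 Emulsion formulation, water-diluted to set dose, was put onto the flooded surface (4 cm depth, alluvial soil) the same day weeds were sown and 2.5-leaf rice transplanted. After 3 weeks at 25-30 °C under glass, each species was rated 0 (≤5% kill) to 5 (≥90% kill).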

blackgrass [5] = test: Test Example 4: herbicidal effect by soil treatment (Table 19, symbol J); assay type: in vivo, blackgrass (Alopecurus myosuroides); settings: amount of applied herbicide 320 g/ha
Procedure, shortened: as §1

windgrass [6] = test: Test Example 4: herbicidal effect by soil treatment (Table 19, symbol L); assay type: in vivo, windgrass (Apera spica-venti); settings: amount of applied herbicide 320 g/ha
Procedure, shortened: as §1

rice flat sedge = test: Test Example 3: herbicidal effect by foliage application, Wagner pot (Table 18, symbol E); assay type: in vivo, rice flat sedge (Cyperus iria); settings: 320 g/ha
Procedure, shortened: (§4)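 Plants were sown in alluvial soil held under 0.1–0.5 cm standing water and grown 14 days in a greenhouse at 25–30 °C. An emulsifiable formulation, water-diluted to the set dose, was then sprayed onto the foliage, and effects were scored three weeks later using previously defined criteria.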

chickweed [7] = test: Test Example 5: herbicidal effect by foliage application, plastic box (Table 20, symbol P); assay type: in vivo, common chickweed (Stellaria media); settings: foliage application, 320 g/ha, three weeks after application
Procedure, shortened: as §2

Italian ryegrass [8] = test: Test Example 5: herbicidal effect by foliage application, plastic box (Table 20, symbol K); assay type: in vivo, Italian ryegrass (Lolium multiflorum); settings: foliage application, 320 g/ha, three weeks after application
Procedure, shortened: as §2

wild oat [9] = test: Test Example 5: herbicidal effect by foliage application, plastic box (Table 20, symbol I); assay type: in vivo, wild oat (Avena fatua); settings: foliage application, 320 g/ha, three weeks after application
Procedure, shortened: as §2

green foxtail [10] = test: Test Example 4: herbicidal effect by soil treatment (Table 19, symbol G); assay type: in vivo, green foxtail (Setaria viridis); settings: amount of applied herbicide 320 g/ha
Procedure, shortened: as §1

oval-leafed pondweed = test: Test Example 1: herbicidal activity, application before weed generation under submerged conditions (Table 16, symbol C); assay type: in vivo, oval-leafed pondweed (Monochoria vaginalis); settings: 320 g/ha applied herbicide
Procedure, shortened: as §3

windgrass [11] = test: Test Example 5: herbicidal effect by foliage application, plastic box (Table 20, symbol L); assay type: in vivo, windgrass (Apera spica-venti); settings: foliage application, 320 g/ha, three weeks after application
Procedure, shortened: as §2

barnyard grass [12] = test: Test Example 4: herbicidal effect by soil treatment (Table 19, symbol H); assay type: in vivo, barnyard grass (Echinochloa crus-galli); settings: amount of applied herbicide 320 g/ha
Procedure, shortened: as §1

southern crabgrass [13] = test: Test Example 5: herbicidal effect by foliage application, plastic box (Table 20, symbol F); assay type: in vivo, southern crabgrass (Digitaria ciliaris); settings: foliage application, 320 g/ha, three weeks after application
Procedure, shortened: as §2

Japanese bulrush = test: Test Example 1: herbicidal activity, application before weed generation under submerged conditions (Table 16, symbol B); assay type: in vivo, Japanese bulrush (Schoenoplectus juncoides); settings: 320 g/ha applied herbicide
Procedure, shortened: as §3

velvetleaf [14] = test: Test Example 4: herbicidal effect by soil treatment (Table 19, symbol M); assay type: in vivo, velvetleaf (Abutilon theophrasti); settings: amount of applied herbicide 320 g/ha
Procedure, shortened: as §1

false cleavers [15] = test: Test Example 4: herbicidal effect by soil treatment (Table 19, symbol Q); assay type: in vivo, false cleavers (Galium spurium); settings: amount of applied herbicide 320 g/ha
Procedure, shortened: as §1

barnyard grass [16] = test: Test Example 3: herbicidal effect by foliage application, Wagner pot (Table 18, symbol H); assay type: in vivo, barnyard grass (Echinochloa crus-galli); settings: 320 g/ha
Procedure, shortened: as §4

false cleavers [17] = test: Test Example 5: herbicidal effect by foliage application, plastic box (Table 20, symbol Q); assay type: in vivo, false cleavers (Galium spurium); settings: foliage application, 320 g/ha, three weeks after application
Procedure, shortened: as §2

velvetleaf [18] = test: Test Example 5: herbicidal effect by foliage application, plastic box (Table 20, symbol M); assay type: in vivo, velvetleaf (Abutilon theophrasti); settings: foliage application, 320 g/ha, three weeks after application
Procedure, shortened: as §2

lambsquarters [19] = test: Test Example 4: herbicidal effect by soil treatment (Table 19, symbol O); assay type: in vivo, lambsquarters (Chenopodium album); settings: amount of applied herbicide 320 g/ha
Procedure, shortened: as §1

Chinese sprangletop = test: Test Example 3: herbicidal effect by foliage application, Wagner pot (Table 18, symbol D); assay type: in vivo, chinese sprangletop (Leptochloa chinensis); settings: 320 g/ha
Procedure, shortened: as §4

wild oat [20] = test: Test Example 4: herbicidal effect by soil treatment (Table 19, symbol I); assay type: in vivo, wild oat (Avena fatua); settings: amount of applied herbicide 320 g/ha
Procedure, shortened: as §1

Italian ryegrass [21] = test: Test Example 4: herbicidal effect by soil treatment (Table 19, symbol K); assay type: in vivo, Italian ryegrass (Lolium multiflorum); settings: amount of applied herbicide 320 g/ha
Procedure, shortened: as §1

barnyard grass [22] = test: Test Example 5: herbicidal effect by foliage application, plastic box (Table 20, symbol H); assay type: in vivo, barnyard grass (Echinochloa crus-galli); settings: foliage application, 320 g/ha, three weeks after application
Procedure, shortened: as §2

chickweed [23] = test: Test Example 4: herbicidal effect by soil treatment (Table 19, symbol P); assay type: in vivo, common chickweed (Stellaria media); settings: amount of applied herbicide 320 g/ha
Procedure, shortened: as §1

green foxtail [24] = test: Test Example 5: herbicidal effect by foliage application, plastic box (Table 20, symbol G); assay type: in vivo, green foxtail (Setaria viridis); settings: foliage application, 320 g/ha, three weeks after application
Procedure, shortened: as §2

southern crabgrass [25] = test: Test Example 4: herbicidal effect by soil treatment (Table 19, symbol F); assay type: in vivo, southern crabgrass (Digitaria ciliaris); settings: amount of applied herbicide 320 g/ha
Procedure, shortened: as §1

persian speedwell [26] = test: Test Example 4: herbicidal effect by soil treatment (Table 19, symbol R); assay type: in vivo, Persian speedwell (Veronica persica); settings: amount of applied herbicide 320 g/ha
Procedure, shortened: as §1

lambsquarters [27] = test: Test Example 5: herbicidal effect by foliage application, plastic box (Table 20, symbol O); assay type: in vivo, lambsquarters (Chenopodium album); settings: foliage application, 320 g/ha, three weeks after application
Procedure, shortened: as §2

Question: What does the source list for `CCCC(=O)Oc1c(C)nn(C)c(=O)c1-c1c(-c2ccc(N(C)C)cc2)sc2ccccc12` [1-040]?
Answer: herbicidal effect rating, N: redroot pigweed (redroot pigweed [1]): 0 (Herbicidal rate of 5% or less (almost no effect)); herbicidal effect grade, R: persian speedwell (persian speedwell [2]): 5 (Herbicidal rate of 90% or more (almost completely withered)); herbicidal effect grade, N: redroot pigweed (redroot pigweed [3]): 5 (Herbicidal rate of 90% or more (almost completely withered)); herbicidal effect grade, J: blackgrass (blackgrass [4]): 0 (Herbicidal rate of 5% or less (almost no effect)); Herbicidal effect on A: late watergrass (grade 0-5) (late watergrass): 3 (Herbicidal rate of 40% or more and less than 70%); herbicidal effect rating, J: blackgrass (blackgrass [5]): 0 (Herbicidal rate of 5% or less (almost no effect)); herbicidal effect rating, L: windgrass (windgrass [6]): 0 (Herbicidal rate of 5% or less (almost no effect)); herbicidal effect on E (rice flat sedge), rating 0-5 (rice flat sedge): 5 (Herbicidal rate of 90% or more (almost completely withered)); herbicidal effect grade, P: chickweed (chickweed [7]): 5 (Herbicidal rate of 90% or more (almost completely withered)); herbicidal effect grade, K: Italian ryegrass (Italian ryegrass [8]): 4 (Herbicidal rate of 70% or more and less than 90%); herbicidal effect grade, I: wild oat (wild oat [9]): 0 (Herbicidal rate of 5% or less (almost no effect)); herbicidal effect rating, G: green foxtail (green foxtail [10]): 0 (Herbicidal rate of 5% or less (almost no effect)); Herbicidal effect on C: oval-leafed pondweed (grade 0-5) (oval-leafed pondweed): 1 (Herbicidal rate of 5% or more and less than 20%); herbicidal effect grade, L: windgrass (windgrass [11]): 0 (Herbicidal rate of 5% or less (almost no effect)); herbicidal effect rating, H: barnyard grass (barnyard grass [12]): 0 (Herbicidal rate of 5% or less (almost no effect)); herbicidal effect grade, F: southern crabgrass (southern crabgrass [13]): 4 (Herbicidal rate of 70% or more and less than 90%); Herbicidal effect on B: Japanese bulrush (grade 0-5) (Japanese bulrush): 3 (Herbicidal rate of 40% or more and less than 70%); herbicidal effect rating, M: velvetleaf (velvetleaf [14]): 0 (Herbicidal rate of 5% or less (almost no effect)); herbicidal effect rating, Q: false cleavers (false cleavers [15]): 0 (Herbicidal rate of 5% or less (almost no effect)); herbicidal effect on H (barnyard grass), rating 0-5 (barnyard grass [16]): 4 (Herbicidal rate of 70% or more and less than 90%); herbicidal effect grade, Q: false cleavers (false cleavers [17]): 3 (Herbicidal rate of 40% or more and less than 70%); herbicidal effect grade, M: velvetleaf (velvetleaf [18]): 5 (Herbicidal rate of 90% or more (almost completely withered)); herbicidal effect rating, O: lambsquarters (lambsquarters [19]): 0 (Herbicidal rate of 5% or less (almost no effect)); herbicidal effect on D (Chinese sprangletop), rating 0-5 (Chinese sprangletop): 3 (Herbicidal rate of 40% or more and less than 70%); herbicidal effect rating, I: wild oat (wild oat [20]): 0 (Herbicidal rate of 5% or less (almost no effect)); herbicidal effect rating, K: Italian ryegrass (Italian ryegrass [21]): 3 (Herbicidal rate of 40% or more and less than 70%); herbicidal effect grade, H: barnyard grass (barnyard grass [22]): 3 (Herbicidal rate of 40% or more and less than 70%); herbicidal effect rating, P: chickweed (chickweed [23]): 0 (Herbicidal rate of 5% or less (almost no effect)); herbicidal effect grade, G: green foxtail (green foxtail [24]): 5 (Herbicidal rate of 90% or more (almost completely withered)); herbicidal effect rating, F: southern crabgrass (southern crabgrass [25]): 0 (Herbicidal rate of 5% or less (almost no effect)); herbicidal effect rating, R: persian speedwell (persian speedwell [26]): 0 (Herbicidal rate of 5% or less (almost no effect)); herbicidal effect grade, O: lambsquarters (lambsquarters [27]): 4 (Herbicidal rate of 70% or more and less than 90%)
